Experimental data as given in paper PMC8703450, “New Heterocyclic Combretastatin A-4 Analogs: Synthesis and Biological Activity of Styryl-2(3H)-benzothiazolones” (Pharmaceuticals, 2021).

Assays:
[1] = MTT cytotoxicity assay, BEAS-2B control cells; format: cell-based; conditions: human, read-out: Cytostatic activity (% viable cells)
Protocol: (§1) All tested compounds were dissolved in DMSO at 25 mM initial concentration and diluted with medium to obtain the working concentrations (0.01 nM–250 µM). Serial drug dilutions were prepared in medium immediately before each experiment. The DMSO working concentration in the medium was […]. For the MTT assay, cells were seeded into 96-well microtitre plates at a density of 1 × 10^4 in 100 µL complete medium per well. They were further incubated for 24 h, followed by treatment with CA-4 analogs up to 72 h. Cell viability was determined using the MTT assay. Ten µL of MTT solution (5 mg/mL) was added to each well and further incubated for 3 h at 37 °C. To dissolve the formazan product, 100 µL/well of 99.5% isopropanol was added. Cell viability was determined by measuring absorbance at 550/630 nm using a DTX880 plate reader (Beckman Coulter, USA). Results, expressed as concentrations that inhibit 20% (IC20), 50% (IC50), and 80% (IC80) of cell growth, were calculated using GraphPad Prism 8.0.1.
(§2) Table S 3.1. Description of eukaryotic cell lines used for MTT assay.
Panel Cell line Origin Tissue, characteristics Source Culture conditions
(h) lung carcinoma ATCC, CCL-185 U/mL penicillin, 100
lung, bronchus; insulin, rhEGF, GA-
BEAS-2B h epithelial virus ATCC, CRL- 1000, BPE,

Colon-26 cells = assay: MTT cytotoxicity assay, Colon-26; format: cell-based; conditions: Mus musculus, 72 h
Protocol: as §1, §2
(§3) Panel Cell line Origin Tissue, characteristics Source Culture conditions […]
(§4) (h) lung carcinoma ATCC, CCL-185 U/mL penicillin, 100 […]
(§5) lung, bronchus; insulin, rhEGF, GA-BEAS-2B h epithelial virus ATCC, CRL- 1000, BPE, transformed 9609 transferrin,
(§6) HT-29 h colon, colorectal Radostina adenocarcinoma Alexandrova 3.1 g/L D-Glucose […]

MCF-10A cells = assay: MTT cytotoxicity assay, MCF-10A control cells; format: cell-based, human; conditions: Homo sapiens, 72 h
Protocol: as §1, §2, §3, §4, §5, §6

EA.hy926 cells [2] = assay: MTT cytotoxicity / growth inhibition assay, EA.hy926; format: cell-based, human; conditions: Homo sapiens; for IC50: EA.hy 926, 72 h of treatment
Protocol: The endothelial cell line (EA.hy926) was kindly provided by Dr. C-J.S. Edgell—University of North Carolina, USA. Cells were cultured in 4.5 g/L D-Glucose DMEM/F12 medium, supplemented with 10% fetal bovine serum (FBS, Cytogen GmBH, Greven, Germany) and 100 U/mL penicillin and streptomycin (Lonza BioWhitaker, Verviers, Belgium). The other cell lines used are described in Table S3.1. Cell cultures were maintained in an incubator at 37 °C with 95% humidity and 5% CO2 and were routinely found free of mycoplasma.
as §1

caspase 3, 8 and 9 = assay: Western blot analysis of caspase activation; format: cell-based, human; conditions: EA.hy926, 24 h
Protocol: A total of 7 × 10^5 cells was seeded in 100-mm dishes. On the next day, cells were treated with the corresponding concentrations of CA-4 and 26Z. After 24 h, treated cells were collected and lysed with lysis buffer (50 mM HEPES, pH 7.7, 250 mM KCl, 10% glycerol, 0.1% Nonidet P-40) containing protease inhibitors (0.4 mM sodium vanadate, 0.5 mM PMSF, 1 mM DTT, […]) by incubation on ice for 30 min and overnight at −20 °C [80]. The concentration of obtained total cell protein lysates was determined by the method of Bradford. Samples were separated on 12% polyacrylamide gels and transferred to nitrocellulose or PVDF membranes. Immunoblotting was performed by blocking in 3.5% non-fat dried milk in PBS, with subsequent incubation for 1 h with primary antibodies for caspase 3 (sc-56053, Santa Cruz Biotechnology), caspase 8 (sc-81656, Santa Cruz Biotechnology), caspase 9 (sc-8355, Santa Cruz Biotechnology), and PARP-1 (sc-8007, Santa Cruz Biotechnology), diluted in PBS containing 0.05% Tween-20. This was followed by incubation with a peroxidase-conjugated secondary antibody m-Igk BP-HRP (sc-516102, Santa Cruz Biotechnology) or a donkey anti-rabbit IgG-HRP (sc-2313, Santa Cruz Biotechnology) for 1 h, and detection of the chemiluminescent signal was accomplished with ECL Select^TM Western Blotting Detection Reagent (Amersham) on X-ray film. β–actin was used as a loading control and mouse monoclonal antibody was used following the manufacturer’s instruction (sc-47778, Santa Cruz Biotechnology).

EA.hy926 cells [3] = assay: Cell cycle analysis (propidium iodide, flow cytometry); format: cell-based, human; conditions: 300 nM 26Z or 10 nM CA-4
Protocol: A total of 5 × 10^5 cells was treated with 26Z and CA-4 for time-response assays. Cells were collected by scraping, pelleted, washed with cold PBS (1×), and fixed overnight at 4 °C with 1 mL of ice-cold methanol–acetone (1:1), added dropwise to the pellet while vortexing. Pellets were resuspended and washed in 500 μL of PBS (1×), then permeabilized with a Triton X-100 (0.05–0.1%)/DNA extraction buffer (0.2 M Na2HPO4, 0.04 M citric acid, pH 7.8) in a 1:1 ratio for 15 min. After that, pelleted cells were treated with RNAse A (20 μg/mL) and labeled with 10 μg/mL of propidium iodide (Sigma-Aldrich) by incubation at 37 °C for at least 30 min, protected from light. DNA content was measured using a FACS Calibur flow cytometer ([…], NJ, USA), and cell cycle analysis was performed with FlowJo software (version 8.7). At least 10,000 events were recorded for each sample measured in duplicate.

[4] = MTT cytotoxicity assay, MCF-10A control cells; format: cell-based, human; conditions: human, read-out: Cytostatic activity (% viable cells)
Protocol: as §1, §2, §3, §4, §5, §6

COc1ccc(/C=C\c2cc(OC)c(OC)c(OC)c2)cc1O [CA-4, Combretastatin A-4]
viability at 72 h ([1]; BEAS-2B cells): 80%
IC50 (Colon-26 cells): 660 ± 82 nM
IC50 (MCF-10A cells): 1640 ± 340 nM
IC50 (EA.hy926 cells [2]): 3.3 ± 0.2 nM
active forms of effector caspase 3 (caspase 3, 8 and 9; CA-4 IC50 and 26Z IC20): to a lesser extent

COc1cc(/C=C\c2ccc3c(c2)sc(=O)n3C)cc(OC)c1OC [Compound 26Z, (Z)-3-methyl-6-(3,4,5-trimethoxystyryl)-2(3H)-benzothiazolone]
cells in G2/M (EA.hy926 cells [3]; EA.hy926, 4 h): ~ 35%
cells in G2/M (EA.hy926 cells [3]; EA.hy926, 24 h): ~ 78%
viability at 72 h [1]: 80%
viability at 72 h [4]: 65%
IC50 (EA.hy926 cells [2]): 130 ± 10 nM
IC20 (EA.hy926 cells [2]; EA.hy 926, concentration that inhibits 20% of cell growth): 40 ± 10 nM
IC80 (EA.hy926 cells [2]; EA.hy 926, concentration that inhibits 80% of cell growth): 300 ± 40 nM
activation of caspases 8 and 9 (caspase 3, 8 and 9): activated
active forms of effector caspase 3 (caspase 3, 8 and 9; 26Z at IC50 and IC80): detected
active forms of effector caspase 3 (caspase 3, 8 and 9; CA-4 IC50 and 26Z IC20): to a lesser extent
